Test [1] has as its target T1, human GLP1R (Homo sapiens, UniProt P43220).
T1 construct: expressed in transfected cells; kept under Blasticidin and Hygromycin selection
Briefly: cAMP activity assay, cells expressing human GLP1R. The test is classed as cell-based. Conditions: cAMP production, assay buffer with or without 20% human serum (not stated which). As to the method:
(§1) Activity of the peptides at the Glucagon receptor (GCGR) and GLP-1 receptor (GLP1R) was measured in a cAMP activity assay. Peptides were dissolved in 100% DMSO and serially diluted to generate 10 point titrations. The peptide solutions were then transferred into 384-well assay plates (150 nL/well). […] Production of cAMP was determined using […] kits (DiscoverX) following manufacturer protocol. The plates were incubated for overnight at room temperature in the dark. Luminescence was measured using an EnVision Multilabel plate reader (Perkin Elmer). Native GLP-1 and Glucagon (Bachem) are used as control peptides. EC50 values were calculated using uses a 4 parameter logistic fit based on the Levenberg-Marquardt algorithm.
For orientation: Changes in cAMP serve as a functional read-out for many G protein-coupled receptors.

Test [2] concerns the target T2, human GCGR (Homo sapiens, UniProt P47871).
T2 construct: expressed in transfected cells; kept under Blasticidin and Hygromycin selection
The experiment in a line: cAMP activity assay, cells expressing human GCGR. Conditions: for EC50: cAMP production, cells expressing human GCGR, assay buffer with or without 20% human serum (not stated which), read-out: GCGR EC50 human; for hGCGR/hGLP1R (hTone): ratio of human GCGR EC50 to human GLP1R EC50. The test is classed as cell-based. The method, then:
as §1

The source of these data is patent publication US11492385B2, “Long-acting co-agonists of the glucagon and GLP-1 receptors” (Merck Sharp & Dohme Corp., priority 2015, dated 2022).

What is called EC50 is the concentration that produces a half-maximal response.

Structures are written as SMILES. Starred links: 1 amine or outer side, 2 acyl side, 3 side chain; linkers in the order of their positions; H or OH if unused. Non-standard residues stand in square brackets, D forms with d. Residues, ends and D or L forms follow the SMILES beside them. Groups on a side chain read outwards from the residue. *: point of attachment. Phe(4-CH2NH2) = NCc1ccc(C[C@H](N)C(=O)O)cc1; C19 diacid = O=C(O)CCCCCCCCCCCCCCCCCC(=O)*; C16 diacid = O=C(O)CCCCCCCCCCCCCCC(=O)*; γGlu = O=C(O)[C@H](CCC(=O)[*:2])N[*:1]; Met(O2) = CS(=O)(=O)CC[C@H](N)C(=O)O; AEEA = NCCOCCOCC(=O)O; Aib = CC(C)(N)C(=O)O

T1 sequence (P43220 24-463): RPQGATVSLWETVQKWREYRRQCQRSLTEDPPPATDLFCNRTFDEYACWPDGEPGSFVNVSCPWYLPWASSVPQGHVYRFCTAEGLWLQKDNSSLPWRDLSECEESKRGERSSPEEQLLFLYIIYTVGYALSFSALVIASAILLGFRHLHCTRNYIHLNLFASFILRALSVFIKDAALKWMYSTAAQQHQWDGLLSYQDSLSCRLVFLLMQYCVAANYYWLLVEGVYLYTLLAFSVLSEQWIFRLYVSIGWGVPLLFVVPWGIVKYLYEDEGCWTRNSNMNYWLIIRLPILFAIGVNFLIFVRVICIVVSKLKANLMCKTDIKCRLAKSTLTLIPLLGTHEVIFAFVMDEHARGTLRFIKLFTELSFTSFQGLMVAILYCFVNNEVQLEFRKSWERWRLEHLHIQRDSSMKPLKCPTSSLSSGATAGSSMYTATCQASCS
T2 sequence (P47871 26-477): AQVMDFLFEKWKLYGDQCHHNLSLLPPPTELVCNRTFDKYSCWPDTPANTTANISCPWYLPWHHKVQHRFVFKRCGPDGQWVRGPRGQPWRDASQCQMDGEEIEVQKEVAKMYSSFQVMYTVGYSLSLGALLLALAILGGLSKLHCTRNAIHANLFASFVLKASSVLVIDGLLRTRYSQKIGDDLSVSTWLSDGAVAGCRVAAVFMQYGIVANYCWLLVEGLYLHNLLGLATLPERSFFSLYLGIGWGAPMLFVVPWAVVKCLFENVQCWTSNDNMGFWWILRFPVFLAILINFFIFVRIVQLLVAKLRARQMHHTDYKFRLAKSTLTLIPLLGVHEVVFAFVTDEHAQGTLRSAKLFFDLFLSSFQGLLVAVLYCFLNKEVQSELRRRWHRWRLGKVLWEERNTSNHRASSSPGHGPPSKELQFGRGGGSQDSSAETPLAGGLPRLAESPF

Regarding `CC(C)C[C@H](NC(=O)[C@H](Cc1ccc(O)cc1)NC(=O)[C@H](CCCCN)NC(=O)[C@H](CO)NC(=O)[C@H](Cc1ccc(O)cc1)NC(=O)[C@H](CC(=O)O)NC(=O)[C@H](CO)NC(=O)[C@@H](NC(=O)[C@H](Cc1ccccc1)NC(=O)[C@@H](NC(=O)CNC(=O)[C@H](CCC(N)=O)NC(=O)C(C)(C)NC(=O)[C@@H](N)Cc1c[nH]cn1)[C@@H](C)O)[C@@H](C)O)C(=O)N[C@@H](CC(=O)O)C(=O)N[C@@H](C)C(=O)N[C@@H](CCCNC(=N)N)C(=O)N[C@@H](C)C(=O)N[C@@H](C)C(=O)N[C@@H](CCCCNC(=O)COCCOCCNC(=O)COCCOCCNC(=O)CC[C@H](NC(=O)CCCCCCCCCCCCCCCCCC(=O)O)C(=O)O)C(=O)N[C@@H](CC(=O)O)C(=O)N[C@@H](Cc1ccccc1)C(=O)N[C@H](C(=O)N[C@@H](CCC(N)=O)C(=O)N[C@@H](Cc1c[nH]c2ccccc12)C(=O)N[C@@H](CC(C)C)C(=O)N[C@@H](CCS(C)(=O)=O)C(=O)N[C@@H](CC(=O)O)C(=O)N[C@H](C(N)=O)[C@@H](C)O)C(C)C` [compound 45] (H-H[Aib]QGTFTSDYSKYLDARAAK([AEEA-AEEA-γGlu-C19 diacid])DFVQWL[Met(O2)]DT-NH2), the 50% effective concentration (EC50) in test [1] came to 0.12 nM. In addition, in test [2], the EC50 came out at 0.16 nM and the “hGCGR/hGLP1R (hTone)” value worked out at 1.30.
Taken in the same sequence, the figures for `CC(C)C[C@H](NC(=O)[C@H](Cc1ccc(O)cc1)NC(=O)[C@H](CCCCN)NC(=O)[C@H](CO)NC(=O)[C@H](Cc1ccc(O)cc1)NC(=O)[C@H](CC(=O)O)NC(=O)[C@H](CO)NC(=O)[C@@H](NC(=O)[C@H](Cc1ccccc1)NC(=O)[C@@H](NC(=O)CNC(=O)[C@H](CCC(N)=O)NC(=O)[C@@H](CO)NC(=O)[C@@H](N)Cc1c[nH]cn1)[C@@H](C)O)[C@@H](C)O)C(=O)N[C@@H](CC(=O)O)C(=O)N[C@@H](C)C(=O)N[C@@H](CCCNC(=N)N)C(=O)N[C@@H](C)C(=O)N[C@@H](C)C(=O)N[C@@H](CCC(N)=O)C(=O)N[C@@H](Cc1ccc(CNC(=O)COCCOCCNC(=O)COCCOCCNC(=O)CC[C@H](NC(=O)CCCCCCCCCCCCCCC(=O)O)C(=O)O)cc1)C(=O)N[C@@H](Cc1ccccc1)C(=O)N[C@H](C(=O)N[C@@H](CCC(N)=O)C(=O)N[C@@H](Cc1c[nH]c2ccccc12)C(=O)N[C@@H](CC(C)C)C(=O)N[C@@H](CC(C)C)C(=O)N[C@@H](CC(=O)O)C(=O)N[C@H](C(N)=O)[C@@H](C)O)C(C)C` [compound 23] (H-H[dS]QGTFTSDYSKYLDARAAQ[Phe(4-CH2NH2)]([AEEA-AEEA-γGlu-C16 diacid])FVQWLLDT-NH2) were 0.27 nM, 0.04 nM and 0.14.
The corresponding values for `CC(C)C[C@H](NC(=O)[C@H](Cc1ccc(O)cc1)NC(=O)[C@H](CCCCN)NC(=O)[C@H](CO)NC(=O)[C@H](Cc1ccc(O)cc1)NC(=O)[C@H](CC(=O)O)NC(=O)[C@H](CO)NC(=O)[C@@H](NC(=O)[C@H](Cc1ccccc1)NC(=O)[C@@H](NC(=O)CNC(=O)[C@H](CCC(N)=O)NC(=O)[C@@H](CO)NC(=O)[C@@H](N)Cc1c[nH]cn1)[C@@H](C)O)[C@@H](C)O)C(=O)N[C@@H](CC(=O)O)C(=O)N[C@@H](CCC(=O)O)C(=O)N[C@@H](CCCNC(=N)N)C(=O)N[C@@H](C)C(=O)N[C@@H](C)C(=O)N[C@@H](CCC(N)=O)C(=O)N[C@@H](CCCCNC(=O)COCCOCCNC(=O)COCCOCCNC(=O)CC[C@H](NC(=O)CCCCCCCCCCCCCCC(=O)O)C(=O)O)C(=O)N[C@@H](Cc1ccccc1)C(=O)N[C@H](C(=O)N[C@@H](CCC(N)=O)C(=O)N[C@@H](Cc1c[nH]c2ccccc12)C(=O)N[C@@H](CC(C)C)C(=O)N[C@@H](CCS(C)(=O)=O)C(=O)N[C@@H](CC(=O)O)C(=O)N[C@H](C(N)=O)[C@@H](C)O)C(C)C` [compound 16] (H-H[dS]QGTFTSDYSKYLDERAAQK([AEEA-AEEA-γGlu-C16 diacid])FVQWL[Met(O2)]DT-NH2) are 0.31 nM, 0.03 nM and 0.09.
